Measured values from ChEMBL document CHEMBL1201862, “PubChem BioAssay data set” (2004).
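Method: 48-hour compound exposure of cells in 96-well plates, five concentrations, linear interpolation of endpoints. Abbreviation: GI50, concentration required for 50% inhibition of growth.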 Calls of active or inactive are those of the source. Rule as the data show it: active = GI50 up to about 1.1 µM and inactive = higher.

Assays:
Experiment in all cases: NCI anticancer screen, dose series, 48 h
NCI-H460 = system: NCI-H460
PC-3 = system: PC-3
SF-268 = system: SF-268
786-0 = system: 786-0
NCI/ADR-RES = system: NCI/ADR-RES
EKVX = system: EKVX
ACHN = system: ACHN
SK-MEL-5 = system: SK-MEL-5
OVCAR-4 = system: OVCAR-4
M14 = system: M14
HOP-62 = system: HOP-62
MDA-MB-435 = system: MDA-MB-435
U-251 = system: U-251
OVCAR-5 = system: OVCAR-5
UACC-62 = system: UACC-62
RXF 393 = system: RXF 393
Malme-3M = system: Malme-3M
NCI-H226 = system: NCI-H226
KM12 = system: KM12
HOP-92 = system: HOP-92

Measured: GI50

CC(C)(C)OC(=O)NC(Cc1ccccc1)C(=O)OCN1C(=O)C2C3C=CC(C2C1=O)C1C2C(=O)N(COC(=O)C(Cc4ccccc4)NC(=O)OC(C)(C)C)C(=O)C2C31 (stereo not given)
inactive: NCI-H460 3.82 µM | PC-3 29.5 µM | SF-268 38.5 µM | 786-0 28.2 µM | NCI/ADR-RES 43 µM | EKVX 23.6 µM | ACHN 40.6 µM | SK-MEL-5 28 µM | OVCAR-4 37.1 µM | M14 38.9 µM | HOP-62 30.4 µM | MDA-MB-435 53.7 µM | U-251 41.2 µM | OVCAR-5 53.3 µM | UACC-62 44.8 µM | RXF 393 22.7 µM | Malme-3M 39.4 µM | NCI-H226 29.4 µM | KM12 > 100 µM | HOP-92 86.5 µM

COc1cc(C(=O)N(C(=S)OC23CC4CC(CC(C4)C2)C3)c2ccccc2)cc(OC)c1OC
inactive: NCI-H460 27.1 µM | PC-3 22.6 µM | SF-268 35.6 µM | 786-0 25.6 µM | NCI/ADR-RES 22.8 µM | EKVX 14.8 µM | ACHN 29.6 µM | SK-MEL-5 16.1 µM | OVCAR-4 29.2 µM | M14 18.9 µM | HOP-62 43.7 µM | MDA-MB-435 29.5 µM | U-251 19 µM | OVCAR-5 26.5 µM | UACC-62 22 µM | RXF 393 32.7 µM | Malme-3M 29.1 µM | NCI-H226 21.5 µM | KM12 26.5 µM | HOP-92 21 µM

CSCCC(NCc1c(O)ccc2ccc(=O)oc12)C(=O)O (stereo not given)
inactive: NCI-H460 > 100 µM | PC-3 > 100 µM | SF-268 > 100 µM | 786-0 > 100 µM | NCI/ADR-RES > 100 µM | EKVX > 100 µM | ACHN > 100 µM | SK-MEL-5 61.5 µM | OVCAR-4 > 100 µM | M14 > 100 µM | HOP-62 > 100 µM | MDA-MB-435 70.8 µM | U-251 > 100 µM | OVCAR-5 > 100 µM | UACC-62 > 100 µM | RXF 393 > 100 µM | Malme-3M > 100 µM | NCI-H226 > 100 µM | KM12 > 100 µM | HOP-92 > 100 µM
